Measurements from patent US8211945B2, “Carba-sugar amine derivative and glycolipid metabolic disorder treating agent containing the same as active ingredient” (Seikagaku Corporation, priority 2001, dated 2012).

Assays:
[1] = molecular target: T1, human normal β-galactosidase (GP8) (Homo sapiens, UniProt P16278); experiment: β-Galactosidase activity in model cells (knockout mouse fibroblasts with transferred gene) cultured 4 days with substance; type: cell-based; design: made in house; host or cells: SV40-immortalized β-galactosidase knockout mouse skin fibroblasts
T1 sequence (P16278 29-677): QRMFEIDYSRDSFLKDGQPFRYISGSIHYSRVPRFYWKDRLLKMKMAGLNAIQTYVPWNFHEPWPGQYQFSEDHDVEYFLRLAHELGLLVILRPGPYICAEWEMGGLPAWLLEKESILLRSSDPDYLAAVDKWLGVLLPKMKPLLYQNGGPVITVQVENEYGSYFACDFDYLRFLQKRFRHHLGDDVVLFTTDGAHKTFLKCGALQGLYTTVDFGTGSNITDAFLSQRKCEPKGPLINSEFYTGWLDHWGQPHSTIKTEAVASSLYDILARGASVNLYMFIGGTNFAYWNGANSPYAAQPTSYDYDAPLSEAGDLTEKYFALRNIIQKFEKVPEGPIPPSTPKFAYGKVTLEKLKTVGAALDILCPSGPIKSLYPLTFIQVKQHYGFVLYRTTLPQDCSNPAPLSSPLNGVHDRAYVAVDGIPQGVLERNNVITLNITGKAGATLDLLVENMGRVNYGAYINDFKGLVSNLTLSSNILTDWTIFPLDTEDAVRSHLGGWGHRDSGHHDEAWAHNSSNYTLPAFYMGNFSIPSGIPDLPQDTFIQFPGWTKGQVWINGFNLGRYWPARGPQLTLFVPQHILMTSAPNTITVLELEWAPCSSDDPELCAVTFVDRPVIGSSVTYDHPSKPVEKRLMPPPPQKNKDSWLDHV
Source text: Cultured skin fibroblasts of a β-galactosidase-deficient knockout mouse was immortalized by introducing an SV40 viral gene, and enzyme genes integrated into pSV2neo and an expression vector were also introduced simultaneously, thereby establishing a model cell (Brain Dev., 23(5), 284-287, 2001). The genes used are human normal (GP8) and mutant β-galactosidase gene Y316C, G123R (infantile GM1-gangliosidosis), R201C (juvenile GM1-gangliosidosis), 151T, T82M, R201H, R263S, R457Q (adult GM1-gangliosidosis), W273L, Y83H, R482H and R482C (Morquio-B disease) (Hum. Genet., 93(2), 109-114, 1994).
As a control substance, 0.5 mM N-(n-butyl)-deoxygalactonojirimycin (NB-DGJ: The Journal of Biological Chemistry, 269, 27108-27114 (1994)) was used, and the substance 18 of the present invention was used in an amount of 0.2 μM.
Specifically, after culturing the model cell for 4 days using a cell culture medium (10% FCS DMEM) containing the substance 18 of the present invention, the resulting cells were recovered and diluted such that the amount of protein in the suspension became a predetermined level, and then enzyme activity in the diluted suspension was measured. Using 4-methylumbelliferyl-β-D-galactopyranoside as the fluorescent substrate, the enzyme activity during 30 minutes was measured at 37° C.

[2] = Safety observation during 1 week oral administration test in mice; settings: about 1.4 mg per day orally
Experimental: That is, tap water containing 1 mM (about 0.28 mg/ml) of the substance 18 of the present invention was continuously administered for 1 week as drinking water to recombinant mice (3 month-old) prepared by transferring a human mutant β-galactosidase gene R201C into β-galactosidase deficient knockout mice. One week thereafter, the mice were sacrificed to excise the cerebrum, the cerebellum, the heart, the lungs, the liver, the spleen, the kidney, a muscle (femoral muscle) and plasma. Also, tail tissues were used for the purpose of verifying changes in the β-galactosidase activity in the same individual before and after the administration. Each organ was crushed under ice-cooling using a homogenizer, and then the suspension of crushed cells was centrifuged at 8,000×g for 30 minutes. Thereafter, the supernatant fraction was recovered and used as an enzyme solution. The amount of protein in this enzyme solution was measured by the Bradford method, and the β-galactosidase activity was measured. With regard to the measurement of β-galactosidase activity, the enzyme activity during 30 minutes was measured at 37° C. using 4-methylumbelliferyl-β-D-galactopyranoside as the fluorogenic substrate. […] Three animals were used in each group to calculate the mean value.

[3] = molecular target: T1, human normal β-galactosidase (GP8); experiment: Galactosidase inhibitory activity, enzyme from culture supernatant, 4-methylumbelliferyl-β-D-galactopyranoside substrate; type: biochemical; design: made in house; host or cells: SV40-immortalized β-galactosidase knockout mouse skin fibroblasts; Enzyme source was the supernatant after 24 h in NH4Cl medium, dialyzed and concentrated; settings: 30 minutes
Experimental: Knockout mouse skin fibroblast introduced with a human normal β-galactosidase (GP8) cDNA (Biochem. Biophys. Res. Commun., 157(1), 238-244, 1988) and immortalized with an SV40 viral gene were cultured at 37° C. in an atmosphere of 5% CO2, using Dulbecco's modified Eagle's medium (to be referred to as “DMEM” hereinafter: manufactured by Gibco) containing 10% fetal calf serum (to be referred to as “FCS” hereinafter), and when the cells became 80% confluent, the medium was exchanged with FCS-free DMEM containing 10 mM of NH4Cl. After culturing for 24 hours, the supernatant was recovered and dialyzed against 10 mM phosphate buffer (pH=6.5) for 4 hours. Thereafter, the mixture was concentrated using VIVAPORE-20 (manufactured by Vivapore) and used as the enzyme source. Using 4-methylumbelliferyl-β-D-galactopyranoside as the fluorescent substrate, the enzyme activity during 30 minutes was measured in the presence or absence of the substance to be tested (Table 1). Final concentration of the substance 18 of the present invention was adjusted to 0.05, 0.125, 0.25, 0.5, 1, 2.5 or 5 μM.

Structure (SMILES) | enzyme activity, Control ([1]; transferred gene GP8, control substance 0.5 mM NB-DGJ) | health condition [2] | Relative ratio (×100%) ([1]; GP8, substance 18 vs control) | enzyme activity ([1]; transferred gene GP8, 0.2 μM, 4 days) | activity at 0.05 µM ([3]; 0.050 umol/L substance) | activity at 0.125 µM ([3]; 0.125 umol/L substance) | activity at 0.25 µM ([3]; 0.250 umol/L substance) | activity at 0.5 µM ([3]; 0.500 umol/L substance) | activity at 1 µM ([3]; 1.000 umol/L substance) | activity at 2.5 µM ([3]; 2.500 umol/L substance) | activity at 5 µM ([3]; 5.000 umol/L substance)
CCCCN1C[C@H](O)[C@@H](O)[C@@H](O)[C@H]1CO [Control, N-(n-butyl)-deoxygalactonojirimycin, reference compound] | 74.94 |  |  |  |  |  |  |  |  |  | 
CCCCCCCCN[C@@H]1C=C(CO)[C@H](O)C(O)[C@@H]1O (stereo partly drawn) [Substance 18, N-octyl-5a-carba-α-L-arabino-hexo-5(5a)-enopyranosylamine] |  | health condition was markedly good | 1.05 ×100% | 78.87 | 77% | 59.5% | 43.4% | 35.7% | 36% | 18.7% | 14.4%
